The numbers were not newly measured in patent publication US7511145B2 (Genelabs Technologies, Inc., priority 2003, dated 2009), which cites them from elsewhere.

For the series the following is noted: cited from earlier work.

SMILES strings stand for the structures.

`NC(=O)c1ncn([C@@H]2O[C@H](CO)[C@@H](O)[C@H]2O)n1` [Ribavirin, ribavirin]: for the setting “human, in vivo”, the teratogenicity / embryotoxicity entry was “teratogenic and embryotoxic”. Besides, the “patients with significant hemolysis” value (patients treated at currently recommended doses) was 10-20%.
